Laboratory results from paper PMC6683399, “Identification of a novel S6K1 inhibitor, rosmarinic acid methyl ester, for treating cisplatin-resistant cervical cancer” (BMC Cancer, 2019).

Target: T1, S6K1 (p70 S6K1, ribosomal protein S6 kinase 1) (Homo sapiens, UniProt P23443)
T1 construct: gene RPS6KB1; recombinant active S6K1 (R&D systems 896-KS)
Experiment: in vitro kinase assay with recombinant S6K1 and GST-S6 (also H2B) substrate, […] ATP, immunoblot readout
Type: biochemical

T1 sequence (P23443 whole entry): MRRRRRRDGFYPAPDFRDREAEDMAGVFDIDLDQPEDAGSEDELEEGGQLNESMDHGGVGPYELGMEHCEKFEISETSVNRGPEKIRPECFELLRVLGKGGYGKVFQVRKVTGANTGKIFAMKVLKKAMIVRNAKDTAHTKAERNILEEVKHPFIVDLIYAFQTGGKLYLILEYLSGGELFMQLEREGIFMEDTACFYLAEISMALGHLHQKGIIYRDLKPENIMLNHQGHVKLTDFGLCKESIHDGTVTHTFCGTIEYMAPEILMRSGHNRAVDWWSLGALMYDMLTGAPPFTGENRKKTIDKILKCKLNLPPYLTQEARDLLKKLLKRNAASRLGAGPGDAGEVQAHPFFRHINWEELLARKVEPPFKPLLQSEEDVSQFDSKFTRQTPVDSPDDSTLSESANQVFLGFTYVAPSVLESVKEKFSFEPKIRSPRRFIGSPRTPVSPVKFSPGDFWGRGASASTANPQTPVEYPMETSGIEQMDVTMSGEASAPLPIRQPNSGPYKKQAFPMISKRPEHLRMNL

Q: With `COC(=O)[C@@H](Cc1ccc(O)c(O)c1)OC(=O)/C=C/c1ccc(O)c(O)c1` [RAME, rosmarinic acid methyl ester] as the compound, how does the “in vitro kinase assay with recombinant S6K1 and GST-S6 (also H2B) substrate, 100” value read?
A: RAME inhibited the phosphorylation of S6 in dose-dependent manner (Fig. 2b)
